Data reported in patent publication US20080234368A9, “Therapeutic compositions and methods of use” (Trustees of Dartmouth College, priority 1998, published 2008).

Tested on: rat hippocampal neurons
Experiment: Protection of hippocampal neurons from β-amyloid induced cell death, MTT assay
Type: cell-based
Method: For the following examples, stock solutions of CDDO (0.01 M) were made in DMSO and aliquots frozen at −20° C. Serial dilutions were made in DMSO before addition to cell culture media. Primary rat microglia and hippocampal neurons were isolated and cultured as described by Flaris et al., 1993 and Ren and Flanders, 1996.
The roles of inflammatory mediators, as well as aberrant programs for cell survival and apoptosis, in the genesis of cancer and Alzheimer's Disease are now undergoing serious investigation (McGeer and McGeer, 1995; Merrill and Benveniste, 1996; Akama et al., 1998). CDDO was tested in this example as a suppressor of de novo formation of iNOS in cultured microglia (the resident macrophages of the brain), as well as its ability to protect cultured hippocampal neurons from cell death induced by β-amyloid. […] Thus, LPS (5 ng/ml) induced iNOS in primary microglial cultures and caused a 27-fold increase in production of NO within 18 h. Concomitant treatment of these cultures with CDDO at either 10^−6 or 10 ^−7 M inhibited this induction by 73% and 52%, respectively. We have also explored the possibility that CDDO can protect cultured hippocampal neurons from cell death induced by the peptide β-amyloid, since NO has been implicated (Akama et al., 1998) in the neurotoxic actions of this peptide which is central to the pathogenesis of Alzheimer's disease (Selkoe, 1997). Hippocampal neurons were isolated and cultured from 16 day rat embryos and then treated with CDDO for 24 h before adding the β-amyloid peptide fragment, amino acids 25-35, at a final concentration of 10 μM. This dosing with β-amyloid alone caused death of more than half of the neurons in the culture within 24 h, as measured by MTT assay.

Q: Which results are given for `CC1(C)CC[C@]2(C(=O)O)CC[C@]3(C)[C@H](C(=O)C=C4[C@@]5(C)C=C(C#N)C(=O)C(C)(C)[C@@H]5CC[C@]43C)[C@@H]2C1` [Compound 6, 2-cyano-3,12-dioxoolean-1,9-dien-28-oic acid]?
A: protection against β-amyloid induced cell death (CDDO 10^−7 M, 24 h pretreatment, β-amyloid 25-35 10 μM, 24 h): totally prevented this cell death; protection against β-amyloid induced cell death (CDDO 10^−8 M, 24 h pretreatment, β-amyloid 25-35 10 μM, 24 h): totally prevented this cell death; protection against β-amyloid induced cell death (doses as low as 10^−10 M): some protective activity
